Measured values: the METLIN SMRT retention time set (Domingo-Almenara et al. 2019)

Test: gradient 5% acetonitrile 3 min, to 50% in 2 min, to 85% in 15 min, held 3 min, 100 µL/min
Conditions: column: Zorbax Extend-C18 2.1 x 50 mm; eluents: water / acetonitrile, 0.1% formic acid
Procedure, shortened: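 Mixtures of ~100 pure standards were chromatographed on a Zorbax Extend-C18 column (2.1 × 50 mm, 1.8 μm) at 100 μL/min using water and acetonitrile, each with 0.1% formic acid. Detection used a quadrupole time-of-flight mass spectrometer in positive and negative ionization mode, and data collection spanned 3 months. Retention time was obtained from adduct peaks picked computationally and each checked manually.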

Compound | RP-LC retention time
COC(=O)C1=CN(C2CC2)c2cc(N3CCN(c4ccc(OC)cc4)CC3)c(F)cc2S1(=O)=O | 856 s
CC(C)C(=O)Nc1ccc2nc(N3CCN(c4ccccc4F)CC3)cc(C(=O)O)c2c1 | 664 s
COc1ccc(-c2csc3nc[nH]c(=O)c23)cc1 | 671 s
CCOC(=O)c1ccc(Nc2c(-c3ccc(C)cc3)nc3cnccn23)cc1 | 918 s
CC(C)CNC(=O)c1ccc(CN2CCN(Cc3ccccc3)C(=O)C2=O)cc1 | 721 s
O=C1Nc2cc(C(=O)N3CCN(Cc4ccc5c(c4)OCO5)CC3)ccc2N2CCCCC12 (centres undefined) | 624 s
COc1ccc(N2CCN(S(=O)(=O)c3cc(-c4nc(C(C)C)cs4)cs3)CC2)cc1 | 1250 s
Cc1ccc(C)c(N2CCN(c3ccnc(SCC(=O)Nc4c(C)cccc4Cl)n3)CC2)c1 | 942 s
CCC(=O)N1CCc2cc(N3CC(C(=O)Nc4ccc(C)cc4)CC3=O)ccc21 (centres undefined) | 786 s
CCCN(C)C(=O)c1cc2c(s1)N(CCC)CCCC2 | 1170 s
Cc1sc(-c2nnc(C3CC3)o2)cc1NC(=O)C1CC1 | 819 s
COc1ccc(CNS(=O)(=O)c2ccc(-c3c(C)noc3C)cc2)cc1 | 886 s
Cc1c(Cl)cccc1NC(=O)CCc1nc(CSc2nnc(-c3ccccc3)o2)no1 | 949 s
Cc1cccc(NC(=O)N2CCC(OC3CCN(S(C)(=O)=O)CC3)CC2)c1C | 718 s
CCOc1ccc(-c2cc3c(=O)n(Cc4nc(-c5ccccc5Br)no4)ncn3n2)cc1 | 1160 s
Cc1ccc(-c2cc3c4nnc(SCC(=O)Nc5ccc(F)cc5Cl)n4ccn3n2)cc1C | 1010 s
COc1ccc(-c2nc(C)c(CCNS(=O)(=O)c3ccc4c(c3)OCCO4)s2)cc1 | 831 s
COc1ccc(NC(=O)c2nnc(C(=O)NCCc3c[nH]c4ccc(OC)cc34)s2)cc1 | 951 s
CN(CCc1noc(-c2ccc(C(=O)N3CCOCC3)cc2)n1)C(=O)C1CCCCC1 | 752 s
COC1CCC12CCN(S(=O)(=O)c1ccc(F)c(C)c1)CC2 (centres undefined) | 1030 s

Compound | RP-LC retention time
CCOC(=O)c1nc(Nc2ccc(OCC(C)C)cc2)c2ccccc2n1 | 998 s
Cn1c(=O)c2c(ncn2CC(=O)OCc2cc(-c3cccs3)on2)n(C)c1=O | 697 s
Cc1ccc(CNC(=O)C2CCCN(c3nnc4ccccn34)C2)cc1 (centres undefined) | 705 s
CC(C)Oc1ccc(-c2noc(CCn3nc(-c4ccc(F)cc4)ccc3=O)n2)cc1 | 1100 s
O=C(Oc1cccnc1)c1cn(-c2ccc(Cl)cc2)c(=O)c2ccccc12 | 947 s
O=C(CCNc1cnc2cnccn12)NCc1ccccc1C(F)(F)F | 585 s
CC(C)c1nnc(-c2cccnc2N2CCN(C(=O)c3ccco3)CC2)o1 | 735 s
O=S(=O)(c1ccc(-c2noc(-c3cccc(Br)c3)n2)cc1)N1CCCC1 | 1290 s
N#CC1=C(SCC(=O)NCc2ccccc2)NC(=O)CC1c1cccc([N+](=O)[O-])c1 (centres undefined) | 803 s
O=C(C1CCCO1)N1CCC2(CC1)NCCc1c2[nH]c2ccccc12 (centres undefined) | 610 s
O=C(C1=CN(c2ccc3c(c2)OCCO3)c2ccccc2S1(=O)=O)N1CCOCC1 | 730 s
Cc1ccc(S(=O)(=O)N2CCC(n3c(-c4ccoc4)nc4cccnc43)C2)cc1 (centres undefined) | 863 s
CCCn1cc(CCNS(=O)(=O)CC)c2cccnc21 | 661 s
Nc1nc(SCC(=O)Nc2cccc(C(F)(F)F)c2)n[nH]1 | 637 s
CCc1noc(NC(C)=O)c1-c1ccc(OC)c(S(=O)(=O)Nc2ccc(C#N)cc2)c1 | 735 s
CC(C)NCc1ccc(-c2ccccc2Cl)o1 | 673 s
CSc1cccc(NC(=O)C2CC(=O)N(c3ccc4c(c3)CCN4C(C)=O)C2)c1 (centres undefined) | 730 s
CCOC(=O)c1c(C)[nH]c(CCC(=O)NCc2cccs2)c1C | 746 s
O=C(O)c1ccccc1N1C(=O)C2C3C=CC(C3)C2C1=O (centres undefined) | 621 s
COC(=O)c1ccc(NC(=O)N(C)CCc2noc(-c3ccccc3)n2)cc1 | 840 s

Compound | RP-LC retention time
CN1C(=O)c2cc(S(=O)(=O)Nc3ccc(F)cc3)ccc2Oc2cccnc21 | 906 s
CC(C)CCN1C(=O)C2(NCCc3c2[nH]c2ccccc32)c2cc(Br)ccc21 (centres undefined) | 835 s
COCC(=O)N1CCc2c(c(-c3nc(C4CC4)no3)nn2C)C1 | 653 s
O=c1c(O[C@@H]2OC([C@H](O)CO)[C@H](O)[C@H]2O)c(-c2ccc(O)c(O)c2)oc2cc(O)cc(O)c12 (some centres undefined) | 641 s
CCOC(=O)CNC(=O)N1CCN(c2nc3ccccc3n(Cc3ccccc3)c2=O)CC1 | 867 s
O=C(COc1ccc(Cl)cc1)Nc1nc(-c2ccccc2)cs1 | 1100 s
COc1ccc(OC)c(NC(=O)C2CCCN(c3cnc4nccnc4c3)C2)c1 (centres undefined) | 730 s
COc1ccc(-c2noc(N3CCC(N4CCCCC4)CC3)n2)cc1OC | 590 s
COc1ccc(C2(C(=O)N3CC(F)(F)C[C@H]3CN3CCN(C)CC3)CC2)cc1 | 641 s
CCC(=O)N1CCc2c([nH]c3ccccc23)C12C(=O)Nc1ccc(Br)cc12 (centres undefined) | 882 s
COCCCNC(=O)C1CCCN(S(=O)(=O)c2ccc(OC)c(OC)c2)C1 (centres undefined) | 699 s
CCOCCOC(=O)c1ccc(NC(=O)C(C)(C)C)cc1 | 815 s
CCCCCc1cccnc1 | 669 s
COc1cccc(CNC(=O)c2nc3cccnc3n(CC(C)C)c2=O)c1 | 850 s
CCc1nnc(-c2ccc3ccn(CC(=O)NCc4ccccc4)c3c2)o1 | 1300 s
Nc1c(C(=O)c2ccccc2)sc2[nH]c(=O)c(C(=O)O)cc12 | 733 s
Cc1nc(C)c(C(=O)Nc2nc(-c3ccc(Br)cc3)cs2)s1 | 1030 s
Cc1ccc(CNC(=O)c2ccc3ncnc(N4CCCCC4)c3c2)o1 | 637 s
Fc1cccc(-n2cc(-c3noc(-c4ccccc4F)n3)nn2)c1 | 1050 s
CN(C)[C@@H]1CN(C(=O)C2CCCC2)CC[C@@H]1CO | 569 s

Now from value to molecule:

RP-LC retention time | Compound
777 s | CNC(=O)c1sc2nc(-c3cccc(F)c3)c(NCCCOC)n2c1C
674 s | CC(C)Cc1noc(C2(F)CCN(S(=O)(=O)c3ccccc3Cl)CC2)n1
1110 s | Cc1ccc(-c2noc(CN3N=NC4C(=O)N(c5ccc6c(c5)CCC6)C(=O)C43)n2)cc1 (centres undefined)
809 s | CCCN1N=C(C(=O)N2CCOCC2)S(=O)(=O)c2ccc(Cl)cc21
920 s | Cc1noc(C2CN(C(=O)Cc3ccccc3)CC23CCN(C)CC3)n1 (centres undefined)
795 s | O=C(CCc1c(-c2ccc(Cl)cc2)nc2ccccn12)Nc1cccc(F)c1
913 s | O=C(c1ccc(F)c(Cl)c1)N1CCN(C(=O)c2nnn3c2COC(c2ccccc2)C3)CC1 (centres undefined)
789 s | Cn1nc(-c2nc(-c3cccc(F)c3)no2)c2c1CCN(C(=O)C1CCCO1)C2 (centres undefined)
1010 s | CCN1CCN(c2nccc(-c3cnc4nc(-c5ccc(Cl)cc5)nn4c3C)n2)CC1
647 s | O=C(NC1CCCC1)C1CCN(Cc2noc(-c3ccc(F)cc3)n2)CC1
706 s | COc1ccc(NC(=O)Cc2csc(NC(=O)C3CC3)n2)cc1C
983 s | COc1cccc(-c2nc(-c3cn(Cc4ccc(F)cc4)nn3)no2)c1
1330 s | Cc1sc2ncnc(N3CCCC(C)C3)c2c1C(=O)Nc1ccc(Cl)cc1F (centres undefined)
600 s | Cc1noc([C@@H]2CN(Cc3ccc(Cl)cc3F)C[C@H]2CO)n1
586 s | Cc1ccc(C)c(NC(=O)C2CC(=O)N(CCc3c[nH]c4ccc(F)cc34)C2)c1 (centres undefined)
606 s | Cc1ccccc1CN1C[C@@H]2C(=O)N(CCCN3CCCC3=O)C(=O)[C@@H]2C1
606 s | CSc1ncccc1C(=O)N1CCc2nc(C)ncc2C1
893 s | CCc1noc(-c2ccc(-n3ncc(C(=O)N4CCSCC4)c3C)nc2)n1
860 s | CCN(Cc1ccccc1)C(=O)c1cn2cc(Cl)ccc2n1
876 s | COc1ccc(C)cc1NC(=O)N1C[C@H](c2nc(-c3ccncc3)no2)[C@@H](C)C1
993 s | COc1ccc(-c2noc(C3CCCN(S(=O)(=O)c4ccc(C)cc4)C3)n2)cc1OC (centres undefined)
895 s | Cc1ccc(NC(=O)N2CCC(c3nc(C(=O)N4CCCC4)c(C)o3)CC2)cc1Cl
869 s | O=C(Cn1ccn2nc(-c3ccccc3)c(CO)c2c1=O)Nc1ccc(Cl)cc1F
1100 s | O=C(NC1CCCC1)c1cccn1Cc1noc(-c2ccc(Cl)cc2)n1
748 s | CCc1noc(-c2ccc(-n3ncc(C(=O)N(C)C)c3C)nc2)n1
1160 s | CCc1ccc(NC(=O)Cn2nc3cc(C)nc(Nc4ccc(F)c(C)c4)n3c2=O)cc1
605 s | CCNC(=O)N1CCC(c2noc(-c3cccnc3)n2)C1 (centres undefined)
609 s | COCCc1noc([C@@H]2CN(Cc3cccc(Cl)c3)C[C@H]2CO)n1
809 s | Cc1cc(NC(=O)CN(C)c2nc3c(Cl)cccc3s2)no1
